Experimental data from patent US20230010110A1, “HISTATIN-1 FORMULATION FOR THE TREATMENT, REPAIR OR REGENERATION OF BONE TISSUE IN A SUBJECT” (UNIVERSIDAD DE CHILE, priority 2019, published 2023).
“Also recorded” adds a separate entry of the source.

Tests used:
[1] = test system: SAOS-2 osteosarcoma cells; assay: in vitro cell adhesion to fibronectin coated plates, crystal violet staining; type: cell-based; details: SAOS-2, 10 μM Histatin-1, fibronectin 2 μg/ml, 5-60 min, serum-free medium
Experimental: (§1) For this, (A) SAOS 2 cells were collected, resuspended in serum-free medium either containing or not 10 μM Histatin-1, and incubated for 30 min. Cells were then allowed to attach to fibronectin coated plates (2 μg/ml) for 5, 10, 15, 30, 45 and 60 min in serum-free medium, containing or not 10 μM Histatin-1. Cell adhesion was detected by crystal violet staining and counting under an optic microscope. Representative images are shown for each time point, in the absence or presence of Histatin 1. […] (B, C and D) Cell migration was measured in Transwell chambers coated with 2 μg/ml fibronectin. Briefly, SAOS 2 (B), MC3T3 E1 cells (C) and APMCs (apical papilla mesenchymal cells, D) were allowed to migrate for 60 min in Transwell chambers, in the presence of 10 μM Histatin 1 or 10 μM of non-phosphorylated Histatin 1 (no P), 10 μM of a scramble sequence or vehicle control (H2O). Cells that migrated were visualized by crystal violet staining. Representative images are shown, and graphs represent the averages of 3 independent experiments (mean±s.e.m; *p<0.05; **p<0.01).

MC3T3-E1 pre-osteoblasts = assay: Transwell cell migration assay; type: cell-based; details: MC3T3-E1, 10 μM, 60 min, Transwell coated with 2 μg/ml fibronectin
Experimental: as §1

[2] = test system: SAOS-2 osteosarcoma cells; assay: Transwell cell migration assay; type: cell-based; details: SAOS-2, 10 μM, 60 min, Transwell coated with 2 μg/ml fibronectin
Experimental: as §1

[3] = test system: apical papilla mesenchymal cells, APMCs; assay: Transwell cell migration assay; type: cell-based; details: 10 μM, 60 min, Transwell coated with 2 μg/ml fibronectin
Experimental: as §1

MC3T3-E1 preosteoblasts = assay: in vitro mineralization test (alizarin red); type: cell-based; details: MC3T3-E1, 10 μM, 7 days
Experimental: (§2) The ability of Histatin-1 to stimulate the formation of calcium deposits was determined by the alizarin red staining test. For this, SAOS-2 cells, MC3T3-E1 preosteoblasts, stem cells from the apical papilla or dental pulp stem cells were grown in complete medium supplemented with bovine serum, in the absence or presence 10 μM Histatin-1 for 7 days. […] Cells were washed with PBS, fixed with 4% paraformaldehyde, and stained with Alizarin Red aqueous solution for 1 h. Finally, samples were washed with distilled water and subsequently with PBS. Calcium deposits were visualized in an optic microscope. Representative images are shown, and graphs represent the quantification of the amount of calcium deposits. Values are shown as the mean±s.e.m (*p<0.01; ***p<0.001).

SAOS-2 cells = assay: in vitro mineralization test (alizarin red); type: cell-based; details: SAOS-2, 10 μM, 7 days
Experimental: as §2

[4] = test system: dental pulp mesenchymal cells; assay: in vitro mineralization test (alizarin red); type: cell-based; details: dental pulp mesenchymal (stem) cells, 10 μM, 7 days
Experimental: as §2
(§3) The same procedure was performed on stem cells of the apical papilla and dental pulp.

[5] = test system: stem cells from the apical papilla (APMCs); assay: in vitro mineralization test (alizarin red); type: cell-based; details: 10 μM, 7 days
Experimental: as §2, §3

[6] = test system: Alkaline Phosphatase (ALP) in MC3T3-E1 cells; assay: Western blot of alkaline phosphatase in whole cell lysates; type: cell-based; details: MC3T3-E1, 10 μM, 24 h
Experimental: (§4) In (A) SAOS-2 and (B) MC3T3-E1 cells were incubated in the absence or presence of 10 μM Histatin-1 for 24 h, and whole cell lysates were analyzed by Western blotting of ALP. […] In (C) SAOS-2 cells were treated or not with 10 μM Histatin-1 for 24 and 48 h, and the activity of alkaline phosphatase (ALP) was measured by metabolization of the substrate p-nitrophenyl phosphate, following absorbance at 405 nm.
(§5) By Western blot assay, the effect of Histatin-1 on the expression of two proteins involved in the osteogenesis process (alkaline phosphatase, β-catenin) was evaluated. For this, SAOS-2 or MC3T3-E1 cells were seeded on 60 mm plates, grown in complete medium supplemented with bovine serum for 24 h, washed with PBS and then incubated for 24 h with either serum-free medium or serum-free medium containing 10 μM Histatin-1. […] Bound first antibodies were detected with HRP-conjugated second antibodies and detected with the EZ-ECL system.
(§6) Representative Western blot images are shown, and relative levels of ALP were quantified by scanning densitometry and normalized to actin. […] (C) SAOS 2 cells were treated or not with 10 μM Histatin 1 for 24 and 48 h, and the activity of alkaline phosphatase (ALP) was measured by metabolization of the substrate p-nitrophenyl phosphate, following absorbance at 405 nm. […]

[7] = test system: Alkaline Phosphatase (ALP) in SAOS-2 cells; assay: as above; type: cell-based; details: SAOS-2, 10 μM, 24 h
Experimental: as §4, §5, §6

[8] = test system: Alkaline Phosphatase (ALP) in SAOS-2 cells; assay: alkaline phosphatase activity, p-nitrophenyl phosphate, absorbance at 405 nm; type: cell-based; details: SAOS-2, 10 μM, 24 and 48 h
Experimental: as §4
Representative Western blot images are shown, and relative levels of ALP were quantified by scanning densitometry and normalized to actin. Graphs represent the average from 3 independent experiments (mean±s.e.m.; *p<0.05). (C) SAOS 2 cells were treated or not with 10 μM Histatin 1 for 24 and 48 h, and the activity of alkaline phosphatase (ALP) was measured by metabolization of the substrate p-nitrophenyl phosphate, following absorbance at 405 nm. Data were averaged from 3 independent experiments and shown as residual activity (% increase with respect to the control condition; mean±s.e.m; *p<0.05).

[9] = test system: β-catenin in SAOS-2 cells; assay: Western blot of β-catenin in whole cell lysates; type: cell-based; details: SAOS-2, 10 μM, 24 h
Experimental: (§7) In (A) SAOS-2 cells were incubated in the absence or presence of 10 μM Histatin-1 for 24 h, and whole cell lysates were prepared for Western blot analysis of β-catenin. […] In (B) SAOS-2 cells were incubated with Histatin-1 for 24 hours. Cells were then fixed, permeabilized and incubated with primary and secondary antibodies for subsequent immunofluorescence analysis of total and non-phosphorylated (transcriptionally active) β-catenin.
as §5
Representative Western blot images are shown, and relative levels of β catenin were quantified by scanning densitometry and normalized to actin. […] (B) SAOS 2 cells were treated or not with 10 μM Histatin 1 for 24 h, then fixed, permeabilized and analyzed incubated with primary and secondary antibodies for subsequent immunofluorescence analysis of total and non-phosphorylated (transcriptionally active) β-catenin. […]

[10] = test system: β-catenin in SAOS-2 cells; assay: immunofluorescence of total and non-phosphorylated β-catenin nuclear localization; type: cell-based; details: SAOS-2, 10 μM, 24 h
Experimental: as §7
Representative Western blot images are shown, and relative levels of β catenin were quantified by scanning densitometry and normalized to actin. Graphs represent the average from 3 independent experiments (mean±s.e.m.; *p<0.05). (B) SAOS 2 cells were treated or not with 10 μM Histatin 1 for 24 h, then fixed, permeabilized and analyzed incubated with primary and secondary antibodies for subsequent immunofluorescence analysis of total and non-phosphorylated (transcriptionally active) β-catenin. Left panels show representative confocal microscopy images of total and active β-catenin, whereas nuclei staining with DAPI was used as reference. […]
Alternatively, SAOS-2 cells grown on coverslips were fixed, permeabilized and analyzed for total and active β-catenin nuclear localization.

[11] = test system: Runx2, osteocalcin, osteopontin and ALP mRNA in APMCs; assay: RT qPCR of osteoblastic differentiation markers; type: cell-based; details: 10 μM, 7 days
Experimental: (§8) (A) MC3T3-E1 and (B) AMPCs cells were treated or not with 10 μM Histatin-1 for 7 days. Total RNA was extracted, for subsequent RT qPCR analysis of Runx2, osteocalcin, osteopontin and ALP.
(§9) To evaluate the differentiation towards bone lineage in the presence of Histatin-1, the expression of the osteocalcin, osteopontin, Runx2 and ALP gene were determined, as markers of differentiation, by means of a qPCR assay for mRNA content analysis. For this, osteoblasts-like cells and stem cells from the apical papilla were grown in complete medium supplemented with bovine serum, in the absence or presence of 10 μM Histatin-1 for 24 h. Total RNA was extracted with TRIZOL (Invitrogen, Life Technologies), following the manufacturer's instructions. For cDNA synthesis, samples were treated with RNase-Free DNase kit (#M6101 Promega), quantified and purity was verified for subsequent reverse transcription, using the cDNA Reverse Transcription Kit (Applied Biosystems). Alkaline phosphatase, osteocalcin, osteopontin, Runx2 and GAPDH were quantified by qRT-PCR (Applied Biosystems, ΔΔCt method).
(§10) Total RNA was extracted, for subsequent RT qPCR analysis of Runx2, osteocalcin, osteopontin and ALP. Relative abundance of all screened mRNAs was normalized to GAPDH, by using the ΔΔCT method. Graphs show data obtained by averaging 3 independent experiments (mean±s.e.m.; *p<0.05; **p<0.01).

[12] = test system: Runx2, osteocalcin, osteopontin and ALP mRNA in MC3T3-E1 cells; assay: RT qPCR of osteoblastic differentiation markers; type: cell-based; details: MC3T3-E1, 10 μM, 7 days
Experimental: as §8, §9, §10

osteoblastic cells = details: zoledronic acid challenge; cited from earlier work
endothelial cells = details: in vitro; cited from earlier work
angiogenesis = details: in vivo; cited from earlier work

## Histatin-1: human salivary peptide of 38 amino acids, obtained by chemical synthesis, with the sequence SEQ ID NO. 1 (DSHEKRHHGYRRKFHEKHHSHREFPFYGDYGSNYLYDN; listed as Homo sapiens)
[1]
  cell adhesion: favors both cell adhesion and migration
MC3T3-E1 pre-osteoblasts
  cell migration: favors both cell adhesion and migration
[2]
  cell migration: favors both cell adhesion and migration
[3]
  cell migration: favors both cell adhesion and migration
MC3T3-E1 preosteoblasts
  calcium deposits / crystal nucleation sites (alizarin red): increases the number of crystal nucleation sites; also recorded: increased staining of the culture with Alizarin Red
SAOS-2 cells
  calcium deposits / crystal nucleation sites (alizarin red): increases the number of crystal nucleation sites; also recorded: increased staining of the culture with Alizarin Red
[4]
  calcium deposits / crystal nucleation sites (alizarin red): increases the number of crystal nucleation sites; also recorded: stimulated the formation of calcium deposits
[5]
  calcium deposits / crystal nucleation sites (alizarin red): increases the number of crystal nucleation sites; also recorded: stimulated the formation of calcium deposits
[6]
  protein levels of ALP (Western blot, normalized to actin): increases the protein levels of ALP
[7]
  protein levels of ALP (Western blot, normalized to actin): increases the protein levels of ALP; also recorded: increased the production of this enzyme
[8]
  activity of alkaline phosphatase (ALP): increases the activity of ALP
[9]
  protein levels of β-catenin (Western blot, normalized to actin): increases the protein levels of β-catenin; also recorded: increases the expression of the protein
[10]
  nuclear localization of active (non-phosphorylated) β-catenin: increases the nuclear localization of total and active β-catenin
  nuclear localization of total β-catenin: increases the nuclear localization of total and active β-catenin
[11]
  mRNA of osteoblastic differentiation markers (Runx2, osteocalcin, osteopontin, ALP), normalized to GAPDH: increases the mRNA of different osteoblastic differentiation markers; also recorded: induces an increase in the relative abundance of mRNA
[12]
  mRNA of osteoblastic differentiation markers (Runx2, osteocalcin, osteopontin, ALP), normalized to GAPDH: increases the mRNA of different osteoblastic differentiation markers; also recorded: induces an increase in the relative abundance of mRNA
Osteoblastic cells
  cell migration in cells challenged with zoledronic acid: restored both cell migration and viability
  cell viability in cells challenged with zoledronic acid: restored both cell migration and viability
Endothelial cells
  endothelial cell migration: stimulating endothelial cell migration
  formation of endothelial structures: formation of endothelial structures in vitro
angiogenesis
  angiogenesis: angiogenesis in vivo
